≈ marks a conversion by molar mass, not a printed value. Read-outs that look alike come from different tables or passages of the source.
How the values were obtained:
[1] = test system: B. subtilis (ATCC 6051); test: MIC, Alamar blue assay; type: cell-based; details: Bacillus subtilis, ATCC6051
[2] = test system: MRSA, S. aureus (ATCC BAA-1762); test: MIC, Alamar blue assay; type: cell-based, methicillin-resistant S. aureus; details: Staphylococcus aureus
[3] = test system: M. tuberculosis (H37Rv); test: MIC, Alamar blue assay; type: cell-based; details: Mycobacterium tuberculosis
[4] = test system: B. subtilis, MRSA, M. tuberculosis and E. coli; test: Antibacterial activity and MK4 growth rescue, statements over all bacteria tested; type: cell-based; details: for increase in MIC values when complemented with exogenous menaquinone-4: B. subtilis, MRSA, M. tuberculosis
[5] = test system: menaquinone levels in S. aureus ATCC BAA-1762 (MRSA); test: Menaquinone levels by LC-MS/MS after lipid extraction; type: cell-based; details: for decrease in menaquinone-8: MRSA, FIG. 9, two independent experiments
Description: The 1959 Blight/Dyer lipid extraction protocol was followed. Menaquinone levels were quantified by LC-MS/MS using standard curves generated with MK4 and MK9. A distribution of MKs are present in untreated MRSA with MK8 most abundant.
Standard error shown for two independent experiments. *p≤0.05, **p≤0.01.
To provide direct insight into the mode of action of the MenE inhibitors, we analyzed the effect of OSB-AMS on menaquinone-levels in S. aureus by tandem MS (FIG. 2), as follows. Cultures of S. aureus ATCC BAA-1762 (5 mL in Synthetic Broth medium with 10% glucose) were incubated overnight in a 37° C. shaker in the presence or absence of OSB-AMS (15.6 μg/mL final concentration). The Blight and Dyer (1959) lipid extraction protocol was used to isolate the menaquinone-containing fraction from the cells.^(5) Briefly, 0.75 mL of 1:2 (v/v) CHCl3:MeOH was added to 0.2 mL of culture. The mixture was vortexed thoroughly, and 0.25 mL of CHCl3 was added followed by further vortexing after which 0.25 mL of H2O was added. The mixture was then vortexed and centrifuged at 1000 rpm for 5 minutes at room temperature. The bottom phase was recovered, transferred to a glass vial and 200 μL was analyzed by APCI LC-MS/MS in positive ion mode using a Thermo TSQ Quantum Access (Thermo-Fisher) Triple Quadrupole Mass Spectrometer. Menaquinone levels were quantified using standard established for MK4 and MK9. Samples were introduced into the mass spectrometer by flow injection at 100 μL/min with 2:1 MeOH/CHCL3 as the solvent. Multiple Reaction Monitoring (MRM) was performed at 30 eV. MK4, MK5 and MK6 were quantified using the standard curve for MK4 whereas MK7, MK8, and MK9 were quantified using MK9.

[6] = molecular target: E. coli MenE (ecMenE) (Escherichia coli, UniProt P37353); test: MenE-MenB coupled assay (enzyme inhibition, catalytic parameters); details: read-out: E. coli MenE IC50; Table E6
Sequence of E. coli MenE (ecMenE) (P37353 whole entry): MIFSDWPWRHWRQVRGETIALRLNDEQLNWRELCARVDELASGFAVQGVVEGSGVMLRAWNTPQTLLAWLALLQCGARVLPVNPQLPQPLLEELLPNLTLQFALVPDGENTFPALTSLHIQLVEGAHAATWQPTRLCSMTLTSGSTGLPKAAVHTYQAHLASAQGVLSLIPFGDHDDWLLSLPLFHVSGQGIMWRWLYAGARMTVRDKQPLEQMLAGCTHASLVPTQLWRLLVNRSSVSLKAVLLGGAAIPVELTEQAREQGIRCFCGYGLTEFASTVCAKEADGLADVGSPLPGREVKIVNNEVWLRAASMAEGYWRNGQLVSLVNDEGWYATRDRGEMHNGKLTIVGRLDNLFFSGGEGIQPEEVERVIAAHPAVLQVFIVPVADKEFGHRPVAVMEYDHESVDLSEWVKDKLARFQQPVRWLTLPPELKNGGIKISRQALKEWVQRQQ
Method: Measurements were performed in triplicate for each compound.
Analysis of the catalytic efficiency (kcat/KM) of the mutant enzymes compared to wild type MenE was performed using the MenE-MenB coupled assay described above.

[7] = test system: E. coli; test: MIC, Alamar blue assay; type: cell-based, E. coli (K-12); details: Escherichia coli; Table E2; ~90% cell death
[8] = molecular target: wild-type E. coli MenE (Escherichia coli, UniProt P37353); test: Direct fluorescent binding assay (intrinsic tryptophan fluorescence)
Sequence of wild-type E. coli MenE (P37353 whole entry): as above
Method: Difluoroindandiol 109 was titrated into a solution of wild-type E. coli MenE and the change in fluorescence was measured using a Quanta Master fluorimeter at excitation and emission wavelengths of 280 and 332 nm, respectively. Data was analyzed using the Morrison equation.
Instead, to determine the Kd for 109, we used a direct binding assay in which the change in the intrinsic tryptophan fluorescence of ecMenE was monitored (see FIG. 14 for binding isotherm and data). […] The solution was stirred continuously, and fluorescence measurements were taken with a Quanta Master fluorimeter using excitation and emission wavelengths of 280 and 332 nm, respectively. Slit widths were optimized to 4 and 2 nm for excitation and emission, respectively. Data were corrected for the inner filter effect and then fit to the following equation using MATLAB: […]

[9] = physchem
[10] = molecular target: wild-type ecMenE (Escherichia coli, UniProt P37353)
Sequence of wild-type ecMenE (P37353 whole entry): as above
Method: The direct binding of inhibitors to MenE was quantified using isothermal titration calorimetry (ITC). Measurements were made with a MicroCal VP-ITC instrument at 25° C. Inhibitor stock solutions (1 mM in NaHPO4 buffer pH 7.4 containing 150 mM NaCl and 1 mM MgCl2) were titrated in 4 μL increments into a 50 μM solution of MenE in pH 7.4 20 mM sodium phosphate buffer containing 150 mM sodium chloride and 1 mM magnesium chloride. The data were fit to a single binding site model with the Origin software package.

[11] = Table E5, with addition of exogenous menaquinone-4 (10 μg/mL), read-out: B. subtilis MIC (in parentheses)
[12] = Table E5, without menaquinone-4, read-out: B. subtilis MIC
[13] = Table E5, with addition of exogenous menaquinone-4 (10 μg/mL), read-out: MRSA MIC (in parentheses)
[14] = Table E5, without menaquinone-4, read-out: MRSA MIC
[15] = Table E5, with addition of exogenous menaquinone-4 (10 μg/mL), read-out: M. tuberculosis MIC (in parentheses)
[16] = Table E5, without menaquinone-4, read-out: M. tuberculosis MIC
[17] = Table E2, ~90% cell death, read-out: B. subtilis MIC
[18] = Table E2, ~90% cell death, read-out: MRSA MIC
[19] = Table E2, ~90% cell death, read-out: M. tuberculosis MIC

| SMILES | MIC [1, 11] [µg/mL] | MIC [1, 12] [µg/mL] | MIC [2, 13] [µg/mL] | MIC [2, 14] [µg/mL] | MIC [3, 15] [µg/mL] | MIC [3, 16] [µg/mL] | increase in MIC values when complemented with exogenous menaquinone-4 [4] | decrease in menaquinone-8 [5] | MIC [7] [µg/mL] | MIC [1, 17] [µg/mL] | MIC [2, 18] [µg/mL] | MIC [3, 19] [µg/mL] | pKa [9] | other results |
| --- | --- | --- | --- | --- | --- | --- | --- | --- | --- | --- | --- | --- | --- | --- |
| Nc1ncnc2c1ncn2[C@@H]1O[C@H](COS(=O)(=O)NC(=O)CC[C@]2(O)c3ccccc3[C@@H](O)C2(F)F)[C@@H](O)[C@H]1O [(1S,3R)-2, 5′-O—(N-[3″-((1S,3R)-2′″,2′″-difluoro-1′″,3′″-dihydroxy-1′″-indanyl)propanoyl]-sulfamoyl)adenosine] | 31.2 (≈ 53.2 µM) | 15.6 (≈ 26.6 µM) | 31.2 (≈ 53.2 µM) | 31.2 (≈ 53.2 µM) | 62.5 (≈ 107 µM) | 31.2 (≈ 53.2 µM) | – | – | – | – | – | – | – | rescue by exogenous menaquinone-4 ([4]; cultures complemented with exogenous menaquinone-4): Some rescue |
| Nc1ncnc2c1ncn2[C@@H]1O[C@H](COS(=O)(=O)NC(=O)CCC2(O)c3ccccc3C(O)C2(F)F)[C@@H](O)[C@H]1O (mixture of isomers) [Compound 2] | 62.5 | 15.6 | 62.5 | 15.6 | 62.5 | 15.6 | four-fold increase | 31% | – | – | – | – | – | – |
| Nc1ncnc2c1ncn2[C@@H]1O[C@H](COS(=O)(=O)NC(=O)CC[C@@]2(O)c3ccccc3[C@H](O)C2(F)F)[C@@H](O)[C@H]1O [(1R,3S)-2, 5′-O—(N-[3″-((1R,3S)-2′″,2′″-difluoro-1′″,3′″-dihydroxy-1′″-indanyl)propanoyl]sulfamoyl)adenosine] | 31.2 (≈ 53.2 µM) | 15.6 (≈ 26.6 µM) | 31.2 (≈ 53.2 µM) | 15.6 (≈ 26.6 µM) | 62.5 (≈ 107 µM) | 15.6 (≈ 26.6 µM) | 2- to 4 fold | – | – | – | – | – | – | IC50 [6]: 5000 nM |
| Nc1ncnc2c1ncn2[C@@H]1O[C@H](COS(=O)(=O)NC(=O)CCC2(O)c3ccccc3C(O)C2(F)F)[C@@H](O)[C@H]1O (mixture of isomers) [Compound 109] | – | – | – | – | – | – | – | – | > 500 | 31.2 (≈ 53.3 µM) | 15.6 (≈ 26.6 µM) | 15.6 (≈ 26.6 µM) | 11.5 | Kd [8]: 120 ± 23 nM |
| Nc1ncnc2c1ncn2[C@@H]1O[C@H](COS(=O)(=O)NC(=O)CCC(=O)c2ccccc2-c2c(O)c(=O)c2=O)[C@@H](O)[C@H]1O (stereo in doubt) [Compound 106] | – | – | – | – | – | – | – | – | > 500 | 250 (≈ 415 µM) | > 500 | > 500 | 1.3 | cellular activity against any bacteria tested [4]: did not show cellular activity |
| Nc1ncnc2c1ncn2[C@@H]1O[C@H](COS(=O)(=O)NC(=O)CCC(=O)c2ccccc2C(=O)O)[C@@H](O)[C@H]1O [OSB-AMS, o-succinylbenzoate-adenenosinemonosulfamate, reference compound] | – | – | – | – | – | – | – | 2.5 fold | > 500 | 62.5 (≈ 114 µM) | 31.2 (≈ 56.8 µM) | 125 (≈ 227 µM) | 4 | decrease in the levels of the menaquinones ([5]; OSB-AMS 15.6 μg/mL, overnight, 37° C.): 3-5 fold; Kd [10]: 44 ± 11 nM; ΔG ([10]; ITC, 25° C., pH 7.4): -10.0 kcal/mol; ΔH ([10]; ITC, 25° C., pH 7.4): -2.0 ± 0.1 kcal/mol |
